Reference: US4382958A, “Secondary amines and compositions for treatment of hypoglycaemia or obesity” (priority 1980, dated 1983)
Where two headings read alike, the source gives them in different places.

Key:
Rat hearts = assay: Cardiac activity: rat hearts perfused by the Langendorff procedure
Experimental: Rat hearts were perfused by the Langendorff procedure.
Hearts were dissected free within 30 seconds of death and reverse perfused via the aorta and coronary vessels with Krebs-Ringer bicarbonate solution (pH 7.4, 37° C.) gassed with 95% oxygen: 5% carbon dioxide at a flow rate between 8-12 cm^3 /minute. Responses were observed after injection of drug dissolved in isotonic saline into the perfusion media.
Results are expressed as a percentage of the maximum response due to salbutamol.

rat ear = assay: Topical anti-inflammatory activity: croton oil inflammation of the rat ear; type: in vivo; details: 6 hours, activity = significant (5% level) reduction in ear weight vs non-drug treated control
Experimental: The method used is based on that described by G. Tonelli et al (Endocrinology, 77, 625-634, 1965). An inflammation is induced in the rat ear by the application of 50 μl of a 1% solution of croton oil in tetrahydrofuran, test compounds being dissolved in the irritant vehicle. After 6 hours the inflammation is assessed by killing the animals and weighing the ears. Topical anti-inflammatory activity of a compound is generally considered to be shown when a significant (5% level) reduction in ear weight is seen compared to non-drug treated control.

Female CFLP mice [1] = assay: Effect on energy expenditure and food intake of mice; type: in vivo; details: Mus musculus, % of mice dosed with water; for response vs control in vivo at 18.5 mg/kg: 18.5 mg/kg po; for response vs control in vivo at 22.2 mg/kg: 22.2 mg/kg po; for response vs control in vivo at 24.5 mg/kg: 24.5 mg/kg po
Experimental: Female CFLP mice each weighing approximately 24 g were given food and water ad lib before and during the experiment. The compounds were dissolved in water by addition of one mole of hydrochloric acid per mole of compound and these solutions were administered orally to each of 12 mice. A further 12 mice were dosed orally with water. The mice were placed in boxes through which air was drawn and the oxygen content of the air leaving the boxes was measured. The energy expenditure of the mice was calculated for 21 hours after dosing from the volume of air leaving the boxes and its oxygen content following the principles described by J. B. de V. Weir, J. Physiol. […] The food intake of the mice was measured over this same period of 21 hours. The results are expressed as a percentage of the mean food intake or rate of energy expenditure of the mice dosed with water.

Female CFLP mice [2] = assay: Hypoglycaemic activity: blood glucose of fasted mice after subcutaneous glucose; type: in vivo; details: Mus musculus, 2 hour period after glucose, vs control mice given water, read-out: REDUCTION IN AREA UNDER BLOOD GLUCOSE CURVE (%); for inhibition in vivo at 1 µmol/kg: 1.0 μ mol/kg oral
Experimental: Female CFLP mice, weighing approximately 25 g, were fasted for 24 hours prior to the study. The compounds under study were administered orally as an aqueous solution to each of 8 mice. 30 minutes later a blood sample ([…]) was obtained from the tail for the analysis of blood glucose. Immediately after taking this blood sample, glucose (1 g/kg body weight) was administered subcutaneously to each mouse. 8 mice were given water as a control. Blood samples were then obtained from each mouse at 30 minute intervals for 120 minutes.
Compounds that produced a significant (P<0.05) reduction on blood glucose, compared with control mice given water, at any time interval, were considered active. The area under the blood glucose curve over the 2 hour period after the administration of the glucose was calculated for each compound and compared with the value for control animals.

[3] = test system: Platelet aggregation (response to collagen); assay: Platelet aggregation inhibition activity: response to intravenous collagen in mice; type: in vivo; details: 1 μ mol/kg po; two hours before collagen 400 μg/kg i.v.
Experimental: Male CFLP mice (ca 20 g, n=8) were dosed orally with compound or vehicle (controls) after an overnight fast. Two hours later each mouse received an intravenous dose of collagen (400 μg/kg, pH 6-6.6). Exactly 30 sec. after injection of collagen, each mouse was placed in a chamber of CO2 until respiration ceased. […] Each concentration was expressed as a percent of that obtained in a tail blood sample taken immediately before injection of collagen.

genetically obese mice = assay: Anti-obesity activity: carcass lipid of genetically obese mice after oral gavage daily for 28 days; type: in vivo; details: 12.2 mg/kg p.o. daily for 28 days, control 18.75
Experimental: The compound of Example 5 was administered by oral gavage in water or carboxymethyl-cellulose suspension to genetically obese mice daily for 28 days. At the end of the time the carcass composition was determined.

[4] = 30 μg added to perfusate, percentage of the maximum response due to salbutamol, read-out: HEART RATE
[5] = 30 μg added to perfusate, percentage of the maximum response due to salbutamol, read-out: HEART TENSION
[6] = 0-3h, read-out: MEAN ENERGY EXPENDITURE (%) 0-3h
[7] = 0-21h, read-out: MEAN ENERGY EXPENDITURE (%) 0-21h
[8] = over 21 hours, read-out: MEAN FOOD INTAKE (%)

Row | SMILES | Emax (Rat hearts; [4]) [%] | Emax (Rat hearts; [5]) [%] | ACTIVITY (topical anti-inflammatory) (rat ear; 2 mg/rat ear topical) | response vs control in vivo at 18.5 mg/kg (Female CFLP mice [1]; [6]) [%] | response vs control in vivo at 18.5 mg/kg (Female CFLP mice [1]; [7]) [%] | response vs control in vivo at 18.5 mg/kg (Female CFLP mice [1]; [8]) [%] | inhibition in vivo at 3 µmol/kg (Female CFLP mice [2]; 3.0 μ mol/kg oral) [%] | Emax (Rat hearts; read-out: HEART TENSION) [%] | ACTIVITY (topical anti-inflammatory) (rat ear; 0.5 mg/rat ear topical) | response vs control in vivo at 22.2 mg/kg (Female CFLP mice [1]; [6]) [%] | response vs control in vivo at 22.2 mg/kg (Female CFLP mice [1]; [7]) [%] | response vs control in vivo at 22.2 mg/kg (Female CFLP mice [1]; [8]) [%] | inhibition in vivo at 1 µmol/kg (Female CFLP mice [2]) [%] | % INHIBITION OF RESPONSE TO COLLAGEN [3] [%] | g LIPID/MOUSE, TREATED (genetically obese mice) [g LIPID/MOUSE] | response vs control in vivo at 24.5 mg/kg (Female CFLP mice [1]; [6]) [%] | response vs control in vivo at 24.5 mg/kg (Female CFLP mice [1]; [7]) [%] | response vs control in vivo at 24.5 mg/kg (Female CFLP mice [1]; [8]) [%]
1 | CC(Cc1ccc(OCCO)cc1)NCC(O)c1ccccc1F (stereo not shown) [Example 1, N-[2-(4-(2-Hydroxyethoxy)phenyl)-1-methylethyl]-2-hydroxy-2-(2-fluorophenyl)ethanamine] | 63 | 53 | Active | 176 | 128 | 70 | 61 |  |  |  |  |  |  |  |  |  |  | 
2 | CC(Cc1ccc(OCCCO)cc1)NCC(O)c1cccc(C(F)(F)F)c1 (stereo not shown) [Example 4, N-[2-(4-(3-Hydroxypropoxy)phenyl)-1-methylethyl]-2-hydroxy-2-(3-trifluoromethylphenyl)-ethanamine] | 7 |  |  |  |  |  |  | 0 | Active | 179 | 121 | 75 | 31 |  |  |  |  | 
3 | CC(Cc1ccc(OCCCCCCO)cc1)NCC(O)c1cccc(C(F)(F)F)c1 (stereo not shown) [Example 5, N-[2-(4-(6-Hydroxyhexyloxy)phenyl)-1-methylethyl]-2-hydroxy-2-(3-trifluoromethylphenyl)-ethanamine] | 0 | 0 |  |  |  |  |  |  |  |  |  |  | 59 | 47 | 15.80 | 213 | 129 | 103
